Columns and labels:
[1] = test system: Hepatotoxicity; assay: Literature-mined compound from Fourches et al multi-species drug-induced liver injury (DILI) dataset, effect in non-rodents
[2] = test system: Hepatotoxicity; assay: Literature-mined compound from Fourches et al multi-species drug-induced liver injury (DILI) dataset, effect in rodents; conditions: rodentia
[3] = test system: Hepatotoxicity; assay: Literature-mined compound from Fourches et al multi-species drug-induced liver injury (DILI) dataset, effect in humans; conditions: human

| Compound | Hepatotoxicity [1] | Hepatotoxicity [2] | Hepatotoxicity [3] | Hepatotoxicity ([1]; Liver) | Hepatotoxicity ([2]; Liver) | Hepatotoxicity ([3]; Liver) |
| --- | --- | --- | --- | --- | --- | --- |
| C=C(C)[C@@H]1CCC(C)=C[C@H]1c1c(O)cc(CCCCC)cc1O [CANNABIDIOL] | no drug-induced liver injury reported | drug-induced liver injury reported | drug-induced liver injury reported |  |  |  |
| C[C@@H]1CC(=O)NN=C1c1ccc(NN=C(C#N)C#N)cc1 [LEVOSIMENDAN] | drug-induced liver injury reported | no drug-induced liver injury reported | no drug-induced liver injury reported |  |  |  |
| CCOc1ccc(NC(C)=O)cc1 [PHENACETIN] | no drug-induced liver injury reported | drug-induced liver injury reported | drug-induced liver injury reported |  |  |  |
| O=C(O)COc1nn(Cc2ccccc2)c2ccccc12 [BENDAZAC] |  |  |  | no drug-induced liver injury reported | no drug-induced liver injury reported | drug-induced liver injury reported |
| CN(C)CCCN1c2ccccc2Sc2ccc(Cl)cc21 [CHLORPROMAZINE] | drug-induced liver injury reported | drug-induced liver injury reported | drug-induced liver injury reported |  |  |  |
| CCOC(=O)C1=C(C)NC(C)=C(C(=O)OC)C1c1cccc(Cl)c1Cl (stereo unspecified) [FELODIPINE] | no drug-induced liver injury reported | no drug-induced liver injury reported | drug-induced liver injury reported |  |  |  |
| CNNCc1ccc(C(=O)NC(C)C)cc1 [PROCARBAZINE] | no drug-induced liver injury reported | drug-induced liver injury reported | no drug-induced liver injury reported |  |  |  |
| CN1CCN2c3ccccc3Cc3ccccc3C2C1 (stereo unspecified) [MIANSERIN] | no drug-induced liver injury reported | drug-induced liver injury reported | drug-induced liver injury reported |  |  |  |
| O=C1OCCN1/N=C/c1ccc([N+](=O)[O-])o1 [FURAZOLIDONE] | no drug-induced liver injury reported | drug-induced liver injury reported | no drug-induced liver injury reported |  |  |  |
| CNC(=O)[C@H]1O[C@@H](n2cnc3c(NCc4cccc(I)c4)ncnc32)[C@H](O)[C@@H]1O [IB-MECA] | no drug-induced liver injury reported | drug-induced liver injury reported | no drug-induced liver injury reported |  |  |  |
| Nc1ncnc2c1ncn2[C@@H]1O[C@H](CO)[C@@H](O)[C@H]1O [ADENOSINE] | drug-induced liver injury reported | drug-induced liver injury reported | drug-induced liver injury reported |  |  |  |
| POLYETHYLENE GLYCOL | no drug-induced liver injury reported | drug-induced liver injury reported | drug-induced liver injury reported |  |  |  |
| CC(=O)Nc1c(I)c(NC(C)=O)c(I)c(C(=O)[O-])c1I.[Na+] [DIATRIZOATE SODIUM] | no drug-induced liver injury reported | drug-induced liver injury reported | no drug-induced liver injury reported |  |  |  |
| CC[C@@]1([C@H]2O[C@H]([C@H]3O[C@@](O)(CO)[C@H](C)C[C@@H]3C)C[C@H]2C)CC[C@H]([C@@]2(C)CC[C@]3(C[C@H](O)[C@@H](C)[C@@H]([C@H](C)[C@H](OC)[C@@H](C)C(=O)[O-])O3)O2)O1.[Na+] [MONENSIN SODIUM] | no drug-induced liver injury reported | drug-induced liver injury reported | no drug-induced liver injury reported |  |  |  |
| CN1C(=O)CN=C(c2ccccc2)c2cc(Cl)ccc21 [DIAZEPAM] |  |  |  | drug-induced liver injury reported | drug-induced liver injury reported | drug-induced liver injury reported |
| CC1=C(/C=C/C(C)=C\C=C\C(C)=C\C(=O)O)C(C)(C)CCC1 [ALITRETINOIN] | no drug-induced liver injury reported | drug-induced liver injury reported | drug-induced liver injury reported |  |  |  |
| CCc1oc2ccccc2c1C(=O)c1cc(Br)c(O)c(Br)c1 [BENZBROMARONE] | no drug-induced liver injury reported | drug-induced liver injury reported | drug-induced liver injury reported |  |  |  |
| CCC1=C[C@@H]2CN(C1)Cc1c([nH]c3ccccc13)[C@@](C(=O)OC)(c1cc3c(cc1OC)N(C)[C@H]1[C@@](O)(C(=O)OC)[C@H](OC(C)=O)[C@]4(CC)C=CCN5CC[C@]31[C@@H]54)C2 [VINORELBINE] | no drug-induced liver injury reported | drug-induced liver injury reported | drug-induced liver injury reported |  |  |  |
| NS(=O)(=O)c1cc2c(cc1Cl)NCNS2(=O)=O [HYDROCHLOROTHIAZIDE] | no drug-induced liver injury reported | no drug-induced liver injury reported | drug-induced liver injury reported |  |  |  |

| Compound | Hepatotoxicity [1] | Hepatotoxicity [2] | Hepatotoxicity [3] | Hepatotoxicity ([1]; Liver) | Hepatotoxicity ([2]; Liver) | Hepatotoxicity ([3]; Liver) |
| --- | --- | --- | --- | --- | --- | --- |
| FC(F)(F)C(Cl)Br (stereo unspecified) [HALOTHANE] | drug-induced liver injury reported | drug-induced liver injury reported | drug-induced liver injury reported |  |  |  |
| CCN(CC)Cc1cc(Nc2ccnc3cc(Cl)ccc23)ccc1O.Cl |  |  |  | no drug-induced liver injury reported | drug-induced liver injury reported | drug-induced liver injury reported |
| Cc1cc2c(C(C)C)c(O)c(O)c(C=O)c2c(O)c1-c1c(C)cc2c(C(C)C)c(O)c(O)c(C=O)c2c1O [GOSSYPOL] | no drug-induced liver injury reported | drug-induced liver injury reported | drug-induced liver injury reported |  |  |  |
| CCc1cc2c(s1)N(C)C(=O)CN=C2c1ccccc1Cl [CLOTIAZEPAM] | no drug-induced liver injury reported | no drug-induced liver injury reported | drug-induced liver injury reported |  |  |  |
| O=C([O-])CCCc1ccccc1.[Na+] [SODIUM PHENYLBUTYRATE] | no drug-induced liver injury reported | no drug-induced liver injury reported | drug-induced liver injury reported |  |  |  |
| CC(C(=O)O)c1ccc(C(=O)c2ccccc2)s1 (stereo unspecified) [TIAPROFENIC ACID] | no drug-induced liver injury reported | drug-induced liver injury reported | no drug-induced liver injury reported |  |  |  |
| C/C=C/C[C@@H](C)C(=O)[C@H]1C(=O)N[C@@H](C(C)C)C(=O)N(C)CC(=O)N(C)[C@@H](CC(C)C)C(=O)N[C@@H](C(C)C)C(=O)N(C)[C@@H](CC(C)C)C(=O)N[C@@H](C)C(=O)N[C@H](C)C(=O)N(C)[C@@H](CC(C)C)C(=O)N(C)[C@@H](CC(C)C)C(=O)N(C)[C@@H](C(C)C)C(=O)N1C [VALSPODAR] | no drug-induced liver injury reported | drug-induced liver injury reported | drug-induced liver injury reported |  |  |  |
| O=C1CC2(CCCC2)CC(=O)N1CCCCN1CCN(c2ncccn2)CC1 [BUSPIRONE] | no drug-induced liver injury reported | no drug-induced liver injury reported | drug-induced liver injury reported |  |  |  |
| CNC1(c2ccccc2Cl)CCCCC1=O (stereo unspecified) [KETAMINE] | drug-induced liver injury reported | drug-induced liver injury reported | no drug-induced liver injury reported |  |  |  |
| C[C@]12CC[C@H]3[C@@H](CCC4=CC(=O)CC[C@@]43C)[C@@H]1CC[C@@H]2O [TESTOSTERONE] | drug-induced liver injury reported | drug-induced liver injury reported | drug-induced liver injury reported |  |  |  |
| Cl.Nc1c2c(nc3ccccc13)CCCC2 [TACRINE HYDROCHLORIDE] |  |  |  | no drug-induced liver injury reported | drug-induced liver injury reported | no drug-induced liver injury reported |
| OC(Cn1cncn1)(Cn1cncn1)c1ccc(F)cc1F [FLUCONAZOLE] |  |  |  | no drug-induced liver injury reported | drug-induced liver injury reported | drug-induced liver injury reported |
| CC(CCc1ccc(O)cc1)NCCc1ccc(O)c(O)c1 (stereo unspecified) [DOBUTAMINE] | drug-induced liver injury reported | no drug-induced liver injury reported | drug-induced liver injury reported |  |  |  |
| O=P(O)(O)OC[C@H]1O[C@@](O)(COP(=O)(O)O)[C@@H](O)[C@@H]1O [FRUCTOSE 1,6-DIPHOSPHATE] | no drug-induced liver injury reported | drug-induced liver injury reported | drug-induced liver injury reported |  |  |  |
| NC(=O)N/N=C/c1ccc([N+](=O)[O-])o1 [NITROFURAZONE] | no drug-induced liver injury reported | drug-induced liver injury reported | no drug-induced liver injury reported |  |  |  |
| CN(CCCN1c2ccccc2CCc2ccccc21)CC(=O)c1ccc(Cl)cc1 [LOFEPRAMINE] | no drug-induced liver injury reported | no drug-induced liver injury reported | drug-induced liver injury reported |  |  |  |
| Clc1ccc(C(c2ccc(Cl)cc2)C(Cl)(Cl)Cl)cc1 [CHLOROPHENOTHANE] | no drug-induced liver injury reported | drug-induced liver injury reported | no drug-induced liver injury reported |  |  |  |
| O=C(O)CCCC[C@@H]1SC[C@@H]2NC(=O)N[C@@H]21 [BIOTIN] | no drug-induced liver injury reported | no drug-induced liver injury reported | drug-induced liver injury reported |  |  |  |

Reference: ChEMBL document CHEMBL1697731, “Cheminformatics analysis of assertions mined from literature that describe drug-induced liver injury in different species” (Chem Res Toxicol, 2010)
